Test results taken from PubChem BioAssay (NCI).
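The compound was tested at five concentrations on cells cultured in 96-well plates, with a 48-hour exposure period. The concentration for full growth arrest is given as TGI.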

Tests used:
Assay in all cases: growth of human tumour cells (NCI), 48 h
SF-295 CNS = tested on: SF-295 CNS
HS 578T breast = tested on: HS 578T breast
SK-MEL-5 melanoma = tested on: SK-MEL-5 melanoma
COLO 205 colon = tested on: COLO 205 colon
HOP-92 NSCLC = tested on: HOP-92 NSCLC
SR leukemia = tested on: SR leukemia
RPMI-8226 leukemia = tested on: RPMI-8226 leukemia
DU-145 prostate = tested on: DU-145 prostate
M14 melanoma = tested on: M14 melanoma
HL-60(TB) leukemia = tested on: HL-60(TB) leukemia

For `O=C(Oc1cccc(Cl)c1)c1cc2cc(CCl)ccc2oc1=O`, the TGI (SF-295 CNS) was greater than 100 µM, the TGI (HS 578T breast) was greater than 100 µM and the TGI (SK-MEL-5 melanoma) was 33.2 µM. For the same compound, the TGI (COLO 205 colon) was 45.9 µM, the TGI (HOP-92 NSCLC) was 43.1 µM and the TGI (SR leukemia) was greater than 100 µM. The TGI (RPMI-8226 leukemia) was greater than 100 µM, the TGI (DU-145 prostate) was 62.9 µM and the TGI (M14 melanoma) was 31.4 µM. The TGI (HL-60(TB) leukemia) was 82 µM.

`CC(C)c1cccc(C(C)C)c1OS(=O)(=O)NC(=O)OC(C(F)(F)F)C(F)(F)F` gave a TGI (SF-295 CNS) of 65.3 µM, a TGI (HS 578T breast) greater than 100 µM and a TGI (SK-MEL-5 melanoma) greater than 100 µM. It also gave a TGI (COLO 205 colon) greater than 100 µM, a TGI (HOP-92 NSCLC) of 59.9 µM and a TGI (SR leukemia) greater than 100 µM. For the same compound, the TGI (RPMI-8226 leukemia) was 44.8 µM, the TGI (DU-145 prostate) was greater than 100 µM and the TGI (M14 melanoma) was 64 µM. It also gave a TGI (HL-60(TB) leukemia) greater than 100 µM.

With `CC1(C)CC[C@]2(C(=O)O)[C@H](O)C[C@]3(C)C(=CC[C@@H]4[C@@]5(C)CC[C@H](OC6OC(C(=O)O)C(O)C(O)C6O)C(C)(C)[C@@H]5CC[C@]43C)[C@@H]2C1` (stereo not given in full) the TGI (SF-295 CNS) was greater than 100 µM, the TGI (HS 578T breast) was 80.9 µM and the TGI (SK-MEL-5 melanoma) was greater than 100 µM. For the same compound, the TGI (COLO 205 colon) was greater than 100 µM, the TGI (HOP-92 NSCLC) was 39.2 µM and the TGI (SR leukemia) was 46.7 µM. For the same compound, the TGI (RPMI-8226 leukemia) was greater than 100 µM, the TGI (DU-145 prostate) was greater than 100 µM and the TGI (M14 melanoma) was greater than 100 µM. For the same compound, the TGI (HL-60(TB) leukemia) was 44.9 µM.

In the case of `OC(CN1CCCCC1)c1ccc(/C=C/c2ccc(Cl)cc2)cc1` (stereo not given), the TGI (SF-295 CNS) is reported as greater than 100 µM, the TGI (HS 578T breast) is reported as greater than 100 µM and the TGI (SK-MEL-5 melanoma) is reported as 43.8 µM. The TGI (COLO 205 colon) was 36 µM, the TGI (HOP-92 NSCLC) was greater than 100 µM and the TGI (SR leukemia) was greater than 100 µM. For the same compound, the TGI (RPMI-8226 leukemia) was greater than 100 µM, the TGI (DU-145 prostate) was greater than 100 µM and the TGI (M14 melanoma) was 41.9 µM. The TGI (HL-60(TB) leukemia) was greater than 100 µM.

In the case of `O=[N+]([O-])c1ccc2ncccc2c1CCc1c([N+](=O)[O-])ccc2ncccc12`, the TGI (SF-295 CNS) is reported as greater than 100 µM, the TGI (HS 578T breast) is reported as greater than 100 µM and the TGI (SK-MEL-5 melanoma) is reported as greater than 100 µM. The TGI (COLO 205 colon) was greater than 100 µM, the TGI (HOP-92 NSCLC) was greater than 100 µM and the TGI (SR leukemia) was greater than 100 µM. The TGI (RPMI-8226 leukemia) was greater than 100 µM, the TGI (DU-145 prostate) was greater than 100 µM and the TGI (M14 melanoma) was greater than 100 µM. For the same compound, the TGI (HL-60(TB) leukemia) was greater than 100 µM.

`CC(=O)OCC1OC(N2C(S)=C(C#N)C(c3ccco3)C(C(C)=O)=C2c2ccccc2)C(OC(C)=O)C(OC(C)=O)C1OC(C)=O` (stereo not given) showed a TGI (SF-295 CNS) of 94 µM, a TGI (HS 578T breast) of 48.4 µM and a TGI (SK-MEL-5 melanoma) greater than 100 µM. For the same compound, the TGI (COLO 205 colon) was greater than 100 µM, the TGI (HOP-92 NSCLC) was 95.2 µM and the TGI (SR leukemia) was greater than 100 µM. The TGI (RPMI-8226 leukemia) was greater than 100 µM, the TGI (DU-145 prostate) was greater than 100 µM and the TGI (M14 melanoma) was greater than 100 µM. The TGI (HL-60(TB) leukemia) was greater than 100 µM.

Compound `CCCCCCCCCCCCCCCCP(=O)([O-])OCC[N+](C)(C)C` has a TGI (SF-295 CNS) of 25.8 µM, a TGI (HS 578T breast) of 33.4 µM and a TGI (SK-MEL-5 melanoma) of 30 µM. The TGI (COLO 205 colon) was 20.5 µM, the TGI (HOP-92 NSCLC) was 29 µM and the TGI (SR leukemia) was 29.4 µM. For the same compound, the TGI (RPMI-8226 leukemia) was 34.2 µM, the TGI (DU-145 prostate) was 28.3 µM and the TGI (M14 melanoma) was 28.9 µM. It also gave a TGI (HL-60(TB) leukemia) of 17.9 µM.

`C=CC1(c2ccc(OC)cc2)OCCCO1` was tested, and the TGI (SF-295 CNS) was greater than 100 µM, the TGI (HS 578T breast) was greater than 100 µM and the TGI (SK-MEL-5 melanoma) was greater than 100 µM. It also gave a TGI (COLO 205 colon) greater than 100 µM, a TGI (HOP-92 NSCLC) greater than 100 µM and a TGI (SR leukemia) greater than 100 µM. For the same compound, the TGI (RPMI-8226 leukemia) was greater than 100 µM, the TGI (DU-145 prostate) was greater than 100 µM and the TGI (M14 melanoma) was greater than 100 µM. The TGI (HL-60(TB) leukemia) was greater than 100 µM.

For `O=P1(c2ccccc2)C2=CCC=CC2C(c2ccccc2)N1Cc1ccccc1` (stereo not given), the TGI (SF-295 CNS) was 28.8 µM, the TGI (HS 578T breast) was 43.9 µM and the TGI (SK-MEL-5 melanoma) was 29.8 µM. The TGI (COLO 205 colon) was 29 µM, the TGI (HOP-92 NSCLC) was 26.6 µM and the TGI (SR leukemia) was 53.5 µM. The TGI (RPMI-8226 leukemia) was 30.5 µM, the TGI (DU-145 prostate) was 31.4 µM and the TGI (M14 melanoma) was 32.3 µM. The TGI (HL-60(TB) leukemia) was 39.9 µM.

`COc1ccc(C[C@@H]2OC3(C=CC(=O)C=C3)O[C@H]2Cc2ccc(OC)cc2)cc1` was tested, and the TGI (SF-295 CNS) was 7.89 µM, the TGI (HS 578T breast) was 23.3 µM and the TGI (SK-MEL-5 melanoma) was 2.94 µM. For the same compound, the TGI (COLO 205 colon) was 2.79 µM, the TGI (HOP-92 NSCLC) was 1.82 µM and the TGI (SR leukemia) was 1.84 µM. The TGI (RPMI-8226 leukemia) was 0.653 µM, the TGI (DU-145 prostate) was 5.32 µM and the TGI (M14 melanoma) was 2.53 µM. It also gave a TGI (HL-60(TB) leukemia) of 5.04 µM.

With `C=CC(Br)(CBr)CCC(Br)C(C)C` (stereo not given) the TGI (SF-295 CNS) was 8.44 µM, the TGI (HS 578T breast) was 7.73 µM and the TGI (SK-MEL-5 melanoma) was 17.7 µM. The TGI (COLO 205 colon) was 19.8 µM, the TGI (HOP-92 NSCLC) was 23.2 µM and the TGI (SR leukemia) was 3.99 µM. The TGI (RPMI-8226 leukemia) was 4 µM, the TGI (DU-145 prostate) was 22.8 µM and the TGI (M14 melanoma) was 15.3 µM. It also gave a TGI (HL-60(TB) leukemia) of 2.04 µM.

`C#CCOC(=O)C(N)CCSC` (stereo not given) was tested, and the TGI (SF-295 CNS) was greater than 100 µM, the TGI (HS 578T breast) was greater than 100 µM and the TGI (SK-MEL-5 melanoma) was greater than 100 µM. It also gave a TGI (COLO 205 colon) greater than 100 µM, a TGI (HOP-92 NSCLC) greater than 100 µM and a TGI (SR leukemia) greater than 100 µM. The TGI (RPMI-8226 leukemia) was greater than 100 µM, the TGI (DU-145 prostate) was greater than 100 µM and the TGI (M14 melanoma) was greater than 100 µM. For the same compound, the TGI (HL-60(TB) leukemia) was greater than 100 µM.
